What was measured:
RXRα = RXRα expression by qRT-PCR in cytokine-treated primary articular chondrocytes; assay type: cell-based; settings: primary human articular chondrocytes (n=4 donors), monolayer culture, 18 hours; IL-1β 1 ng/ml, TNFα 10 ng/ml; vs vehicle/untreated
Procedure: (§1) For isolation of RNA from chondrocytes in monolayer culture, pellets were digested with collagenase (2.5 mg/ml, Sigma, St Louis, Mo.) and RNA was subsequently prepared using TRIzol reagent (Invitrogen) according to the manufacturer's protocol. Primary chondrocytes in monolayer culture were lysed by direct addition of TRIzol reagent followed by standard TRIzol RNA purification methodologies.
(§2) Chondrocytes were isolated from fresh human articular cartilage using a standard method previously described (Heinlein et al., Endocr. Rev. 25:276-308 (2004)). Cells were cultured in 10% FBS containing DMEM/F12 growth media for 2-3 days in 12 well culture plates at a density of 1-2×10^6 cells/well. Chondrocyte cultures were stimulated with cytokines (TNFα: 10 ng/ml; IL-1β: 1 ng/ml) for 18 hours.
(§3) cDNA was prepared from purified RNA using the High-Capacity cDNA Archive Kit (Applied Biosystems, catalog #4322171) according to the manufacturer's instructions. Quantitative real-time PCR was performed using either human TaqMan® Gene Expression assays or TaqMan® Low Density Arrays (TLDA) from Applied Biosystems. Thermal cycling was performed using either an ABI Prism 7900 Sequence Detection System (for TLDA) or an ABI Prism 7700 Sequence Detection System (for individual TaqMan® Gene Expression Assays). […]

RXRγ = RXRγ expression by qRT-PCR in cytokine-treated primary articular chondrocytes; assay type: cell-based; settings: primary human articular chondrocytes (n=4 donors), monolayer culture, 18 hours; IL-1β 1 ng/ml, TNFα 10 ng/ml; vs vehicle/untreated
Procedure: as §1, §2, §3

Substance: IL-1: inflammatory cytokine purchased from R&D Systems, used to stimulate chondrocyte cultures
- RXRα expression (RXRα): significantly reduced
- RXRγ expression (RXRγ): not

From patent publication US20090209601A1, “USE OF RXR AGONISTS FOR THE TREATMENT OF OSTEOARTHRITIS” (Wyeth, priority 2008, published 2009)
